Experimental data taken from US20060165642A1, “Hair treatment compositions” (priority 2002, published 2006).

Test: cuticle abrasion test
Details: for performance in cuticle abrasion test versus comparative Examples: base shampoo containing 0.03M of the compound; for % recovery: freeze-dried cuticle abraded from 4 g hair washed twice with base shampoo containing 0.03M of the compound, lower is better
Protocol: The compositions were tested in a cuticle abrasion test. Root end hair (as received from the supplier) was pre-cleaned by washing for 1 minute in Composition I followed by copious rinsing in double deionised water. The hair was left to dry naturally over 24 hrs.
For each test, 4 g of hair was washed in 0.4 g of the test composition for 30 seconds, rinsed for 30 seconds, and the washing/rinsing cycle repeated. The hair was left to dry naturally overnight.
The hair was cut into 1 cm lengths, placed in a blender bucket and 200 ml of double de-ionised water was added. The blender was placed on full power for 1 minute. The liquor was decanted off and transferred to a 50 ml centrifuge tube and centrifuged for 10 minutes at 4,300 RPM. The resulting clear liquor was decanted off leaving the cuticle sediment at the bottom of the tube.
The cuticle was transferred from the tube into a beaker with 3×5 ml washes and passed through a series of sieves (425 and 53 microns). The sieves were washed with a further 2×10 ml of water to ensure complete recovery of the cuticle. The sample was made up to 50 ml in a centrifuge tube, centrifuged for 15 minutes and the liquor decanted off. The cuticle was transferred with double deionised water (2×10 ml washes) to a beaker and freeze-dried.
The freeze-dried cuticle was weighed back to determine percentage recovery.

SMILES | performance in cuticle abrasion test versus comparative Examples | % recovery
CC(C)(C)CCO [Compound 1, 3,3-dimethylbutan-1-ol] | perform better than comparative Examples A and B | 0.31%
CC(O)CC(C)(C)O (centres unmarked) [Compound B, 2-methyl-2,4 pentanediol, reference compound] |  | 0.50%
CC(C)(C)C(O)CO (centres unmarked) [Compound 2, 3,3-dimethyl-1,2-butanediol] | perform better than comparative Examples A and B | 0.27%
